# Legend:
# [1] = system: thioredoxin reductase (TrxR); conditions: MDA-MB231, 12 h treatment, 16 μM (maximum inhibition); control 3.01 ± 0.01
# Procedure: The assay was performed as previously reported (Galassi et al., [2012]) in 0.2 M Na, K-phosphate buffer (pH 7.4) containing 2 mM EDTA. The assay contained 0.12 mM NADPH and different amounts of cell lysate. The reaction was initiated by the addition of 3 mM 5,5′-dithiobis (2-nitrobenzoic acid) (DTNB) and the increase of absorbance was monitored at 412 nm over 5 min at 25°C.
# Fig. 4S. Effects of gold(I) compounds 5 and 6 on redox enzyme thioredoxine reductase in MDA-MB231 cancer cells. The cells were incubated for 12 hours with different amount of tested compounds 5 and 6. After incubation, cells were washed twice with PBS and lysed. TrxR activity was tested by measuring NADPH-dependent reduction of DTNB (Galassi et al, 2012).
# Human apoTF (ATF) = target: T1, Human apoTF (ATF) (Homo sapiens, UniProt P02787); experiment: Transferrin (ATF) fluorescence quenching; assay type: binding; conditions: Stern-Volmer constant, Tris-HCl pH 7.4, 25°C
# T1 construct: purchased Sigma Aldrich
# Procedure: Human apoTF (ATF) was purchased from Sigma Aldrich and its concentration was determined by measuring the absorbance at 278 nm (ε = 92,300 M^−1 cm^−1). To evaluate if compounds 5 and 6 were able to bind to ATF in vitro, fluorescence spectra were recorded from 300 nm to 450 nm upon tryptophan excitation at 285 nm. Fluorimetric titrations were performed by titrating a 2 mL sample (prepared in 10 mM Tris-HCl buffer pH 7.4, 10 mM NaCl) containing human ATF (12.5 μM) with incremental additions of different aliquots of gold-complexes (5 mM in DMSO). Protein fluorescence intensity was recorded after each successive addition of complex solution and equilibration (5 min). The value of Stern Volmer constants of the different metal complexes to ATF were evaluated following Equation 3 and fluorescent values were corrected by Equation 2. All titrations were performed at room temperature (25°C) and averages between two trials are reported.
# calf thymus DNA (ct-DNA) = experiment: UV-Vis absorption titration with ct-DNA; assay type: binding; conditions: as restated in the discussion
# Procedure: Stock solutions of calf thymus DNA (ct-DNA) (Sigma–Aldrich) were prepared by dissolving the DNA powder overnight in 10 mM Tris–HCl pH 7.4, 10 mM NaCl and incubated under stirrer at 4°C for 12h. […] The concentration of the ct-DNA solution was determined by UV absorbance at 260 nm. The molar absorption coefficient at 260 nm, was taken as 6,600 M^−1 cm^−1 (Marmur, [1961]). Stock solutions of gold(I) complexes (compounds 5 and 6) were prepared in DMSO. Absorption titration experiments performed with fixed concentrations of the different gold(I) complexes (25 μM, in 10 mM Tris–HCl pH 7.4, 10 mM NaCl), gradually increasing the concentration of DNA. After addition of DNA to the compounds, the resulting solution was allowed to […] equilibrate at room temperature for 5 min. Then, the sample solution was scanned in the range 220–600 nm. For the different compounds the binding constant (Kb) was determined from the spectroscopic titration data using the following equation
# [DNA]/(εa-εf)=[DNA]/(εb-εf)+1/Kb(εb-εf),Equation 1
# where [DNA] is the concentration of DNA in base pairs, the apparent absorption coefficient (εa) was obtained by calculating Aobsd/[compound]. The terms εf and εb correspond to the extinction coefficient of free (unbound) and the fully bound compound, respectively. A plot of [DNA]/(εa-εf) vs. [DNA] will give a slope 1/(εb-εf) and an intercept 1/Kb(εb-εf). […]
# A17 cells = experiment: MTT cell viability assay on A17 cells; assay type: cell-based, murine; conditions: A17, 48 h, ± S. D.
# From the text: Human MDA-MB-231 (ER–/PR–/HER2–) and SK-BR-3 (ER–/PR–/HER2+) cells were obtained from American Type Culture Collection (Rockville, MD) and cultured in Dulbecco's Modified Essential Medium (DMEM, Gibco, Life Technologies) supplemented with 10% fetal bovine serum (FBS, Gibco, Life Technologies) and 1% penicillin–streptomycin (Gibco, Life Technologies). A17 cells were established from a spontaneous lobular carcinoma that arose in an FVB/neuT mouse (Galiè et al., [2005]), and maintained in DMEM plus 20% FBS and 1% penicillin-streptomycin. Cells were cultured at 37°C under humidified atmosphere with 5% CO2.
# Stock solutions were prepared for each gold(I) compound (50 mM) using dimethyl sulfoxide (DMSO) (Sigma-Aldrich) as solvent. The effects of gold(I) compounds on SKBR3, A17 and MDA-MB231 cells viability were evaluated by seeding, respectively, 10, ^*10^3, 2.5 ^*10^3, 7, ^*10^3 cells/well in 96 wells plates in complete medium (DMEM supplemented with FBS) and compared to those of cisplatin. The day after, fresh medium containing vehicle alone (DMSO, 1 % v/v final concentration) or increasing concentrations of each compound ranging from 0.1 to 100 μM was added. Cell viability was determined using a MTT [3-(4,5-dimethylthiazol-2-yl)-2,5-diphenyl-2H-tetrazolium bromide Sigma Aldrich, St. Louis, MO] assay, which is based on the conversion of MTT to formazan crystals by mitochondrial enzymes, after 24, 48, and 72 h. The formazan deposits were dissolved in DMSO and the absorbance of each well was measured at 540 nm in Multiskan Ascent 96/384 Plate Reader. Each drug concentration was evaluated with 8 replicates and each experiment was repeated three times. At the end of the experiments a dose–response curve was plotted, and the IC50 concentrations were determined. […] Quantitative data are presented as means ± SEM. […]
# IC50 values were calculated for each of the cell lines tested, by fitting the concentration-effect curves data obtained in the three experiments with the sigmoid-Emax model using nonlinear regression, weighted by the reciprocal of the square of the predicted effect.
# T1 sequence (P02787 20-698): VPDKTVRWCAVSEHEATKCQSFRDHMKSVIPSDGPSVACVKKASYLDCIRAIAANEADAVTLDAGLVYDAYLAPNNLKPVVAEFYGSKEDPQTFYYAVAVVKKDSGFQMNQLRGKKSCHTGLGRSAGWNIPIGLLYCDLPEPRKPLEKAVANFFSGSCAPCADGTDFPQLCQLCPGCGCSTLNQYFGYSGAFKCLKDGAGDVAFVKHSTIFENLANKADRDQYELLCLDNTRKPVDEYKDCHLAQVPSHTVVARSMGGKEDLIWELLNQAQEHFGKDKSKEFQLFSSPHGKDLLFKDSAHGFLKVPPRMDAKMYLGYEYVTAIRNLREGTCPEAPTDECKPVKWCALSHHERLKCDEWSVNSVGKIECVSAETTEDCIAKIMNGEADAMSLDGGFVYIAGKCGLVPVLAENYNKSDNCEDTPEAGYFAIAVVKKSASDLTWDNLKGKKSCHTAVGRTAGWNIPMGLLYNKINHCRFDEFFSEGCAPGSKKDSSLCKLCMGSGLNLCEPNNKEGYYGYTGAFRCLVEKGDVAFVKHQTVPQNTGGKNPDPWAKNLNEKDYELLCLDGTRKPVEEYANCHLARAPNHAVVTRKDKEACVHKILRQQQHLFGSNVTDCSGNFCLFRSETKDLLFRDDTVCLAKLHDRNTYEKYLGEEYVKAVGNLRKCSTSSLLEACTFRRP
Substance,Specific enzymatic activity of TrxR [1],ATF Ksv (Human apoTF (ATF)),binding constant with ct-DNA (calf thymus DNA (ct-DNA)) [mM⁻¹],IC50 (A17 cells) [µM]
"4,5-dichloro-imidazolate-1yl-gold(I)-(triphenylphosphane) [Compound 6]",1.95 ± 0.06 (16 μM) mU/mg,1.51 ± 0.55 10^4 M^−1,3.44,14.4 ± 0.7
"4,5-dicyano-imidazolate-1yl-gold(I)-(triphenylphosphane) [Compound 5]",1.59 ± 0.03 (16 μM) mU/mg,1.93 ± 0.44 10^4 M^−1,1.46,16.2 ± 0.59

# From paper PMC7821381, “Multi-Targeted Anticancer Activity of Imidazolate Phosphane Gold(I) Compounds by Inhibition of DHFR and TrxR in Breast Cancer Cells” (Frontiers in Chemistry, 2021)
